The text below walks through data of patent publication US11999732B2, “P2X3 receptor antagonists” (RECORDATI INDUSTRIA CHIMICA E FARMACEUTICA SPA, priority 2018, dated 2024).

In one test the target is T1, human P2X3 receptor (Homo sapiens, UniProt P56373).
T1 construct: expressed in transfected cells; host or cells: CHO-K1
T1 sequence (P56373 1-397): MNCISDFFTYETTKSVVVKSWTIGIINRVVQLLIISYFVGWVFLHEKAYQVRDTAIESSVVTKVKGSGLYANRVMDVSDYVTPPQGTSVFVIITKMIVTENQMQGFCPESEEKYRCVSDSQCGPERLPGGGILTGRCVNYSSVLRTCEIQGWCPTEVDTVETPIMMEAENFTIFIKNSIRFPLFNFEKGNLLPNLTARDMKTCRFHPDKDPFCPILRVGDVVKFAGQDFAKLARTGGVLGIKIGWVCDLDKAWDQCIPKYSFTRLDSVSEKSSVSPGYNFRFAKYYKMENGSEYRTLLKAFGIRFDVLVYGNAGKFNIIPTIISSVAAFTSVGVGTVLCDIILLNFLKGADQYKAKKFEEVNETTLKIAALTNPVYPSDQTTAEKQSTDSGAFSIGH
Briefly: Calcium luminescence (photoprotein) assay in CHO-K1 cells co-expressing human P2X3 receptor, α,β-Met-ATP stimulation, FLEXSTATION readout. Format: cell-based. To be noted: Table 6; human P2X3 receptor antagonist activity, CHO-K1 cells, α,β-Met-ATP; read-out: h-P2X3 IC50. The method, boiled down: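 CHO-K1 cells co-expressing human P2X3 and a Ca2+-sensitive photoprotein, loaded with coelenterazine in Tyrode's buffer (pH 7.4) for 4 h at 37 °C. Compounds injected 4 min before α,β-Met-ATP stimulation; luminescence recorded, IC50 and pseudo-Hill slope from nonlinear regression of inhibition curves.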
Regarding `COCC1CN2C(=O)N(Cc3ccc(Cl)cc3)c3cc(N4CCOCC4)cnc3C2=N1` (centres unmarked) [Example 11, 6-(4-chlorobenzyl)-2-(methoxymethyl)-8-(morpholin-4-y1)-2,6-dihydroimidazo[1,2-c]pyrido[2,3-e]pyrimidin-5(3H)-one], the IC50 is 358 nM.

With `O=C1N(Cc2ccc(Cl)cc2)c2cc(N3CCOCC3)cnc2C2=NCC(C3CC3)N12` (centres unmarked) [Example 12, 6-(4-chlorobenzyl)-3-cyclopropyl-8-(morpholin-4-yl)-2,6-dihydroimidazo[1,2-c]pyrido[2,3-e]pyrimidin-5(3H)-one], the IC50 turned out to be 428 nM. For `COc1ccc(CN2C(=O)N3CC(CC(C)(C)C)N=C3c3ncc(N4CCOCC4)cc32)cc1` (centres unmarked) [Example 34, 2-(2,2-dimethylpropyl)-6-(4-methoxybenzyl)-8-(morpholin-4-y1)-2,6-dihydroimidazo[1,2-c]pyrido[2,3-e]pyrimidin-5(3H)-one], the IC50 was 408 nM. With `O=C1N(Cc2ccc(Cl)cc2)c2cc(N3CCOCC3)cnc2C2=NCC(C3CCCCC3)N12` (centres unmarked) [Example 26, 6-(4-chlorobenzyl)-3-cyclohexyl-8-(morpholin-4-yl)-2,6-dihydroimidazo[1,2-c]pyrido[2,3-e]pyrimidin-5(3H)-one], the IC50 was 469 nM.

In the case of `O=C1N2CC(c3ccccc3)N=C2c2ncc(N3CCOCC3)cc2N1Cc1ccc(Cl)cc1` (centres unmarked) [Example 36, 6-(4-chlorobenzyl)-8-(morpholin-4-y1)-2-phenyl-2,6-dihydroimidazo[1,2-c]pyrido[2,3-e]pyrimidin-5(3H)-one], the IC50 stood at 245 nM. Turning to `COc1ccc(CN2C(=O)N3CC(CC(F)(F)F)N=C3c3ncc(N4CCOCC4)cc32)cc1` (centres unmarked) [Example 56, 6-(4-methoxybenzyl)-8-(morpholin-4-y1)-2-(2,2,2-trifluoroethyl)-2,6-dihydroimidazo[1,2-c]pyrido[2,3-e]pyrimidin-5(3H)-one], the IC50 is 345 nM. Regarding `CC(C)CCC1CN2C(=O)N(Cc3ccc(Cl)cc3)c3cc(N4CCOCC4)cnc3C2=N1` (centres unmarked) [Example 62, 6-(4-chlorobenzyl)-2-(3-methylbutyl)-8-(morpholin-4-yl)-2,6-dihydroimidazo[1,2-c]pyrido[2,3-e]pyrimidin-5(3H)-one], the IC50 turned out to be 720 nM.

For `COc1ccc(CN2C(=O)N3CC(COC(C)(C)C)N=C3c3ncc(N4CCOCC4)cc32)cc1` (centres unmarked) [Example 57, 2-(tert-butoxymethyl)-6-(4-methoxybenzyl)-8-(morpholin-4-yl)-2,6-dihydroimidazo[1,2-c]pyrido[2,3-e]pyrimidin-5(3H)-one], the IC50 came to 3280 nM.

The test is the same for the next values; noted with them: Table 7; human P2X3 receptor antagonist activity, CHO-K1 cells, α,β-Met-ATP; read-out: h-P2X3 IC50.
Turning to `COc1ccc(Cn2c(=O)n3c(COC4CCOCC4)nnc3c3ncc(N4CCOCC4)cc32)cc1` [Example 98, 6-(4-methoxybenzyl)-8-(morpholin-4-yl)-3-[(tetrahydro-2H-pyran-4-yloxy)methyl]pyrido[2,3-e][1,2,4]triazolo[4,3-c]pyrimidin-5(6H)-one], the IC50 turned out to be 897 nM. As for `COc1cc(Cn2c(=O)n3c(C)c(C)nc3c3ncc(NCC4COC4)cc32)cc(OC)c1` [Example 70, 6-(3,5-dimethoxybenzyl)-2,3-dimethyl-8-{[(oxetan-3-yl)methyl]amino}imidazo[1,2-c]pyrido[2,3-e]pyrimidin-5(6H)-one], the IC50 came out at 139 nM. The same measure, in the same setting: next, `COc1ccc(Cn2c(=O)n3c(C)c(C(C)C)nc3c3ncc(N4CCOCC4)cc32)cc1` [Example 89, 6-(4-methoxybenzyl)-3-methyl-8-(morpholin-4-yl)-2-(propan-2-yl)imidazo[1,2-c]pyrido[2,3-e]pyrimidin-5(6H)-one]: 575 nM. As for `CCn1nccc1-c1nnc2c3ncc(N4CCOCC4)cc3n(Cc3ccc(Cl)cc3)c(=O)n12` [Example 107, 6-(4-chlorobenzyl)-3-(1-ethyl-1h-pyrazol-5-yl)-8-(morpholin-4-yl)pyrido[2,3-e][1,2,4]triazolo[4,3-c]pyrimidin-5(6H)-one], the IC50 was 1320 nM.

The test is the same for the next values; noted with them: Table 8; human P2X3 receptor antagonist activity, CHO-K1 cells, α,β-Met-ATP; read-out: h-P2X3 IC50.
On to `C=C(C)c1nnc2c3ncc(N4CCOCC4)cc3c(Cc3cc(OC)cc(OC)c3)nn12` [Example 120, 6-(3,5-dimethoxybenzyl)-8-(morpholin-4-yl)-3-(prop-1-en-2-yl)pyrido[2,3-d][1,2,4]triazolo[4,3-b]pyridazine], for which the IC50 was found to be 544 nM. For `CC(C)(C)c1nnc2c3ncc(Br)cc3c(Cc3ccc(Cl)cc3)nn12` [Example 112, 8-bromo-3-tert-butyl-6-(4-chlorobenzyl)pyrido[2,3-d][1,2,4]triazolo[4,3-b]pyridazine], the IC50 came out at 1440 nM. `COCCNc1cnc2c(c1)c(Cc1cc(OC)cc(OC)c1)nn1c(CC(C)C)nnc21` [Example 118, 6-(3,5-dimethoxybenzyl)-n-(2-methoxyethyl)-3-(2-methylpropyl)pyrido[2,3-d][1,2,4]triazolo[4,3-b]pyridazin-8-amine]: the IC50 worked out at 1050 nM. For the molecule `Cc1ccc(Cc2nn3c(C(C)C)nnc3c3ncc(N4CCOCC4)cc23)cc1` [Example 115, 6-(4-methylbenzyl)-8-(morpholin-4-yl)-3-(propan-2-yl)pyrido[2,3-d][1,2,4]triazolo[4,3-b]pyridazine], the IC50 is 437 nM. Regarding `CC(C)(C)c1nnc2c3ncc(N4CCC(N)CC4)cc3c(Cc3ccc(Cl)cc3)nn12` [Example 139, 1-[5-tert-butyl-8-(4-chlorobenzyl)-3,4,6,7,13-pentazatricyclo[7.4.0.02,6]trideca-1(9),2,4,7,10,12-hexaen-11-yl]piperidin-4-amine], the IC50 turned out to be 379 nM.

Staying with this test, now noted: Table 9; human P2X3 receptor antagonist activity, CHO-K1 cells, α,β-Met-ATP; read-out: h-P2X3 IC50.
With `COc1ccc(Cn2c(=O)n3c(C(C)(C)C)nnc3c3ncc(N)cc32)cc1` [Example 176, 8-amino-3-tert-butyl-6-(4-methoxybenzyl)pyrido[2,3-e][1,2,4]triazolo[4,3-c]pyrimidin-5(6H)-one], the IC50 amounted to 2570 nM. On to `COc1ccc(Cn2c(=O)n3nc(CC(C)C)nc3c3ncc(N4CCOCC4)cc32)cc1` [Example 156, 6-(4-methoxybenzyl)-2-(2-methylpropyl)-8-(morpholin-4-yl)pyrido[2,3-e][1,2,4]triazolo[1,5-c]pyrimidin-5(6H)-one], for which the IC50 turned out to be 608 nM.

For `O=c1n(Cc2ccc(Cl)cc2)c2cc(N3CCOCC3)cnc2c2nnc(CC3CCOCC3)n12` [Example 186, 6-(4-chlorobenzyl)-8-(morpholin-4-yl)-3-(tetrahydro-2H-pyran-4-ylmethyl)pyrido[2,3-e][1,2,4]triazolo[4,3-c]pyrimidin-5(6H)-one], the IC50 came to 289 nM. `CCC1CCN=C2c3ncc(N4CCOCC4)cc3N(Cc3cc(OC)cc(OC)c3)C(=O)N21` (centres unmarked) [Example 151, 5-(3,5-dimethoxybenzyl)-8-ethyl-3-(morpholin-4-yl)-5,8,9,10-tetrahydro-6H-pyrido[2,3-e]pyrimido[1,2-c]pyrimidin-6-one]: the IC50 stood at 938 nM. Consider `CC(C)C1C(=O)N=C2c3ncc(N4CCOCC4)cc3N(Cc3ccc(Cl)cc3)C(=O)N21` (centres unmarked) [Example 163, 6-(4-chlorobenzyl)-8-(morpholin-4-yl)-3-(propan-2-yl)imidazo[1,2-c]pyrido[2,3-e]pyrimidine-2,5(3H,6H)-dione], for which the IC50 turned out to be 278 nM.

The same test, now with this note: running text b1263; read-out: inhibition (human P2X3 receptor).
In the case of `COc1ccc(Cn2c(=O)n3c(C(C)(C)C)nnc3c3ncc(N4CCOCC4)cc32)cc1` [Example 96, 3-tert-butyl-6-(4-methoxybenzyl)-8-(morpholin-4-yl)pyrido[2,3-e][1,2,4]triazolo[4,3-c]pyrimidin-5(6H)-one], the IC50 worked out at 20.7 nM.
